Assay type in all cases: cell-based
For test [1], the system named is control iPSC (dko) and day 12 pancreatic progenitor cells. Description: Cell viability after 5-FC (CDA kill switch) in directed differentiation. The following applies: increasing concentrations of 5-FC. The method, then: (§1) To validate iCaspase 9 and cytosine deaminase (CDA) kill switch function in vitro, undifferentiated iPSCs and differentiated pancreatic progenitors with either iC9 or CDA knocked into the AURKB or CDK1 loci were tested for selective killing of pluripotent and proliferative cells in a directed differentiation into beta islet cells.
(§2) The kill switch function of CDA, which is inherently specific to proliferative cells, at the AURKB and CDK1 loci was tested in pancreatic progenitor cells generated by directed differentiation from CDA_AURKB iPSCs or CDA_CDK1 iPSCs. […] The partial loss-of-function was similarly observed in the control cell lines with CDA knocked into the AAVS1 locus.

Test [2] concerns CDA_CDK1 iPSCs and pancreatic progenitors. Described as above. As to the method:
as §1, §2

Test [3] has as its system CDA_AAVS1 iPSCs and pancreatic progenitors. Described as above. The following applies: 100 μM 5-FC. The method, then:
as §1, §2

In test [4] the test system is CDA_AURKB iPSCs and pancreatic progenitors. The description is as above. As to the method:
as §1, §2

The test system of test [5] is CDA_AAVS1 pancreatic progenitors. Description: Ki67 staining by flow cytometry of pancreatic progenitor cells untreated or treated with 5-FC. To be noted: 100 μM 5-FC. As to the method:
(§3) In order to test whether the CDA-induced killing was specific to proliferative cells, pancreatic progenitor cells, untreated or treated with 100 μM of 5-FC, were stained for proliferation marker Ki67 and analyzed by flow cytometry.

For test [6], the system named is CDA_CDK1 pancreatic progenitors. The description is as above. The following applies: CDA_CDK1 pancreatic progenitor culture; 100 μM 5-FC. As to the method:
as §3

Test [7] relates to CDA_AURKB pancreatic progenitors. Described as above. The following applies: 100 μM 5-FC. The method, then: as §3

Structures are written as SMILES.

On to `Nc1nc(=O)[nH]cc1F` [5-FC, 5-fluorocytosine], for which the cell viability result in test [1] was “maintained viability”; in test [2] (CDA_CDK1 iPSCs, 100 μM 5-FC), “complete cell death”; in test [3] (CDA_AAVS1 iPSCs) it was “no viable CDA_AAVS1 iPSCs”; in test [4] (CDA_AURKB iPSCs, about 100 μM 5-FC), “complete cell death”. The cell killing result was “partially lost CDA function” in test [2] (CDA_CDK1 pancreatic progenitors, day 12 of differentiation) and “partial loss of CDA function” in test [4] (CDA-AURKB pancreatic progenitors, day 12 of differentiation). Further, the viability at 100 µM in test [3] (iPSC, read-out: cells remained viable, CDA_AAVS1 pancreatic progenitors) amounted to 50%. The “5-FC concentration at which viability began to decrease” value in test [4] (CDA_AURKB iPSCs) is on record as “about 5 μM”. Also, the “clearance of Ki-67 expressing cells” value in test [5] is “clearance of most of the proliferative cells”; in test [6] it was “clearance of most of the proliferative cells”; in test [7] it was “a large subset of Ki-67 expressing cells was cleared”.

These data come from patent publication US20250230470A1, “SAFETY SWITCHES TO CONTROL IN VITRO AND IN VIVO PROLIFERATION OF CELL THERAPY PRODUCTS” (Sana Biotechnology, Inc., priority 2024, published 2025).
